The results in this text go back to PubChem BioAssay (NCI).

Among the test systems are MOLT-4 leukemia; UACC-62 melanoma; IGROV1 ovarian; OVCAR-5 ovarian; MDA-MB-435; SNB-75 CNS; SW-620 colon; EKVX NSCLC; ACHN renal; RPMI-8226 leukemia; MALME-3M melanoma; MDA-N; NCI-H522 lung; A549 NSCLC.
Holding throughout (assay): inhibition of tumour cell growth, NCI panel, 48 h

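Results reflect a 48-hour exposure of cells in 96-well plates to compound at five concentrations. Definition used: TGI = concentration required for complete inhibition of growth.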

In the case of `O=C1CC2SC(COCc3ccccc3)(CCN2Cc2ccccc2)C1` (configuration not stated), the TGI in the test with MOLT-4 leukemia is 91.9 µM; in the test with UACC-62 melanoma it was more than 100 µM; in the test with IGROV1 ovarian it was more than 100 µM; in the test on OVCAR-5 ovarian, more than 100 µM; in the test with MDA-MB-435, more than 100 µM; with SNB-75 CNS it was more than 100 µM. For the same compound, the TGI with SW-620 colon is more than 100 µM; with EKVX NSCLC, more than 100 µM; in the test on ACHN renal it was more than 100 µM; in the test on RPMI-8226 leukemia, 93.4 µM; with MALME-3M melanoma it was more than 100 µM; with MDA-N it was more than 100 µM. Also, the TGI in the test on NCI-H522 lung and with A549 NSCLC was more than 100 µM each time.

Turning to `N/C(=N\S(=O)(=O)c1cc(Cl)c(Oc2ccc([N+](=O)[O-])cc2Cl)c(Cl)c1)Nc1ccc(Cl)cc1`, the TGI with MOLT-4 leukemia was found to be 34.2 µM; with UACC-62 melanoma, 25.6 µM; in the test on IGROV1 ovarian, 31.4 µM; in the test with OVCAR-5 ovarian it was 53.6 µM; in the test on MDA-MB-435, 33.6 µM; in the test on SNB-75 CNS, 35.2 µM. Moreover, the TGI with SW-620 colon was 45.9 µM; in the test with EKVX NSCLC, 36.6 µM; in the test with ACHN renal, 30.5 µM; with MALME-3M melanoma, more than 100 µM; with MDA-N, 34.8 µM; with NCI-H522 lung it was more than 100 µM. Besides, in the test with A549 NSCLC, the TGI was 35.9 µM.

For `COc1cc(/C=N/NC2=NCCCCN2)ccc1O`, the TGI with MOLT-4 leukemia, in the test on UACC-62 melanoma, with IGROV1 ovarian, in the test on OVCAR-5 ovarian, in the test on MDA-MB-435 and in the test on SNB-75 CNS was more than 100 µM throughout. In addition, the TGI in the test with SW-620 colon, in the test on EKVX NSCLC, in the test with ACHN renal, with RPMI-8226 leukemia, in the test on MALME-3M melanoma and in the test with MDA-N was more than 100 µM in each case. For the same compound, the TGI in the test on NCI-H522 lung and in the test on A549 NSCLC was more than 100 µM throughout.

For `C/C(Cc1ccc2c(c1)OCO2)=N\NC(=O)C(C)Sc1nnc(SC(C)C(=O)N/N=C(\C)Cc2ccc3c(c2)OCO3)s1` (configuration not stated), the TGI in the test with MOLT-4 leukemia, in the test with UACC-62 melanoma, in the test on IGROV1 ovarian, with OVCAR-5 ovarian, with MDA-MB-435 and in the test on SNB-75 CNS was more than 100 µM each time. Moreover, the TGI in the test with SW-620 colon, in the test on EKVX NSCLC, in the test with ACHN renal, in the test on RPMI-8226 leukemia, with MALME-3M melanoma and in the test with MDA-N was more than 100 µM throughout. The TGI in the test on A549 NSCLC was more than 100 µM.

Turning to `CN(CCCn1ccnc1[N+](=O)[O-])CCCn1ccnc1[N+](=O)[O-]`, the TGI in the test on MOLT-4 leukemia, in the test with UACC-62 melanoma, with IGROV1 ovarian, in the test with OVCAR-5 ovarian, in the test on MDA-MB-435 and in the test on SNB-75 CNS was more than 100 µM in each case. Also, the TGI with SW-620 colon, in the test with EKVX NSCLC, in the test with ACHN renal, in the test with RPMI-8226 leukemia, with MALME-3M melanoma and in the test on MDA-N was more than 100 µM throughout. Also, the TGI with NCI-H522 lung and in the test on A549 NSCLC was more than 100 µM in each case.

For `C#CC1NC(=O)C1N(CC)CC` (configuration not stated), the TGI in the test with MOLT-4 leukemia, with UACC-62 melanoma, with IGROV1 ovarian, in the test on OVCAR-5 ovarian, in the test with MDA-MB-435 and in the test on SNB-75 CNS was more than 100 µM each time. Also, the TGI in the test with SW-620 colon, with EKVX NSCLC, in the test with ACHN renal, in the test with RPMI-8226 leukemia, in the test with MALME-3M melanoma and in the test on MDA-N was more than 100 µM in each case. Further, the TGI with NCI-H522 lung was more than 100 µM.

With `CCCCC(=O)Nc1ccc2c(C)cc(-c3ccc(-c4cc(-c5ccc(C)cc5)cc(-c5ccc(-c6cc(C)c7ccc(NC(=O)CCCC)nc7n6)cc5)n4)cc3)nc2n1`, the TGI with MOLT-4 leukemia, in the test on UACC-62 melanoma, in the test on OVCAR-5 ovarian, with MDA-MB-435, in the test with SNB-75 CNS and in the test on EKVX NSCLC was more than 100 µM in each case. For the same compound, the TGI with ACHN renal, in the test on RPMI-8226 leukemia, with MALME-3M melanoma, with MDA-N, in the test on NCI-H522 lung and in the test with A549 NSCLC was more than 100 µM throughout.

With `COc1cc2ccc1OCc1cccc(n1)COc1ccc(cc1OC)C=NCCNCCN=C2`, the TGI in the test with MOLT-4 leukemia, in the test on IGROV1 ovarian, in the test on OVCAR-5 ovarian, in the test with MDA-MB-435, with SNB-75 CNS and with SW-620 colon was more than 100 µM each time. The TGI in the test with EKVX NSCLC, in the test with ACHN renal, in the test with RPMI-8226 leukemia, in the test with MALME-3M melanoma, in the test with MDA-N and in the test with NCI-H522 lung was more than 100 µM in each case. Besides, the TGI in the test with A549 NSCLC is more than 100 µM.

Consider `CC1=NN(c2nc(N)nc(/C(C#N)=C\c3cccc([N+](=O)[O-])c3)n2)C(C)(C)C1`, for which the TGI with MOLT-4 leukemia is more than 66.5 µM; in the test on UACC-62 melanoma, more than 40.2 µM; in the test on IGROV1 ovarian it was 34.1 µM; in the test with OVCAR-5 ovarian, more than 100 µM; with MDA-MB-435 it was more than 26 µM; with SNB-75 CNS, 30.9 µM. Further, the TGI in the test with SW-620 colon was more than 51 µM; with EKVX NSCLC, more than 100 µM; in the test with ACHN renal, more than 51.4 µM; in the test on RPMI-8226 leukemia, 13.1 µM; in the test on MALME-3M melanoma, more than 54.9 µM; with MDA-N it was more than 33.3 µM. The compound also returned a TGI in the test on A549 NSCLC of more than 56.8 µM.

In the case of `CC1CN=C(Nc2ccc(F)c(Cl)c2)S1` (configuration not stated), the TGI in the test on UACC-62 melanoma, in the test with IGROV1 ovarian, in the test with OVCAR-5 ovarian, in the test on MDA-MB-435, with SNB-75 CNS and in the test with SW-620 colon was more than 100 µM each time. Also, the TGI with EKVX NSCLC, with ACHN renal, with RPMI-8226 leukemia, with MALME-3M melanoma, in the test with MDA-N and in the test on NCI-H522 lung was more than 100 µM each time. In the test on A549 NSCLC, the TGI was more than 100 µM.
